According to patent publication US20100316573A1, “Organic Compounds” (priority 2006, published 2010):

System: TNFα mRNA in SKOV-3 cells
Experiment: TNFα mRNA induction in SKOV-3 cells (FIG. 2), fold increase relative to untreated cells
Method: Each of the tumor cell lines indicated was treated for 18 hrs with 1 uM of the Compound II. mRNA was harvested using Qiagen's TurboCapture mRNA isolation kit. cDNA was synthesized using BioRad iScript cDNA synthesis kit. Primers specific for the cDNA encoding TNFalpha were then used to PCR amplify TNF cDNA from each sample using Applied. Biosystems TaqMan Universal PCR Master Mix. Data is normalized to B-Actin mRNA and expressed as relative levels of TNF mRNA.
The graph depicting TNF induction by compound II includes nine bars correlating to the fold increase of TNF relative to untreated cells.

CC[C@@H](c1cncc(C(=O)c2ccc(F)cc2)c1)N(CC)C(=O)[C@@H](NC(=O)[C@H](C)NC)C1CCCCC1 [Compound III]
induction of TNFα mRNA (in words): induce TNFα mRNA in SKOV-3 cells in a dose dependent manner | fold increase of TNF relative to untreated cells (100 nM compound + PI (MG132)): 15-20 fold increase | fold increase of TNF relative to untreated cells (100 nM compound + ZVAD): 85-95 fold increase | fold increase of TNF relative to untreated cells (100 nM compound alone): 85-95 fold increase | fold increase of TNF relative to untreated cells (1000 nM compound + PI (MG132)): 30-40 fold increase | fold increase of TNF relative to untreated cells (1000 nM compound + ZVAD): 75-80 fold increase | fold increase of TNF relative to untreated cells (1000 nM compound + sTNFR (soluble TNFα receptor)): 0-1 fold increase | fold increase of TNF relative to untreated cells (1000 nM compound alone): 105-115 fold increase | fold increase of TNF relative to untreated cells (100 nm compound + sTNFR (soluble TNFα receptor)): 0-3 fold increase
